Reference: BindingDB's records for doi:10.1021/jm040903t (Sapienza University of Rome, 2005)

Key:
[1] = target: T1, Amine oxidase [flavin-containing] B (Bos taurus, UniProt P56560); assay: MAO Inhibition Assay; settings: pH 7.4; 38 °C
T1 sequence (P56560 whole entry): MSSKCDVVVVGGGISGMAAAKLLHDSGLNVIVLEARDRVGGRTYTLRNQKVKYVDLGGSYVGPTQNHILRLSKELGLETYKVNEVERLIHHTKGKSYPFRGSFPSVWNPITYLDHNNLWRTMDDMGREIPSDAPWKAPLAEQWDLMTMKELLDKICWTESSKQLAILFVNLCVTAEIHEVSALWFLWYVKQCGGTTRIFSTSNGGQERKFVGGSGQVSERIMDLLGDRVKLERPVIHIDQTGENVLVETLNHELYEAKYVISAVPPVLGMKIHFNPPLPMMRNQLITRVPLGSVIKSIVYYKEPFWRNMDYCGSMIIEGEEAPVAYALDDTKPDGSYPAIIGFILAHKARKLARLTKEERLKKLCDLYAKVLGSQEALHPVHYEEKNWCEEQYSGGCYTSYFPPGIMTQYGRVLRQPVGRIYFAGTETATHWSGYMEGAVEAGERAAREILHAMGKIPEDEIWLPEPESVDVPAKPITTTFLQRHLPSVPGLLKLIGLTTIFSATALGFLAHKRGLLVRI
Procedure: (§1) MAO A and MAO B activities were determined […] using kynuramine as substrates. Fluorimetric measurements were recorded with a Perkin-Elmer LS 50B spectrofluorimeter. Dixon plots were used to estimate the inhibition constant (Ki) of the inhibitors. The data are the mean values of three or more experiments performed in duplicate.

[2] = target: T2, Amine oxidase [flavin-containing] A (Bos taurus, UniProt P21398); assay: MAO Inhibition Assay; settings: pH 7.4; 38 °C
T2 sequence (P21398 whole entry): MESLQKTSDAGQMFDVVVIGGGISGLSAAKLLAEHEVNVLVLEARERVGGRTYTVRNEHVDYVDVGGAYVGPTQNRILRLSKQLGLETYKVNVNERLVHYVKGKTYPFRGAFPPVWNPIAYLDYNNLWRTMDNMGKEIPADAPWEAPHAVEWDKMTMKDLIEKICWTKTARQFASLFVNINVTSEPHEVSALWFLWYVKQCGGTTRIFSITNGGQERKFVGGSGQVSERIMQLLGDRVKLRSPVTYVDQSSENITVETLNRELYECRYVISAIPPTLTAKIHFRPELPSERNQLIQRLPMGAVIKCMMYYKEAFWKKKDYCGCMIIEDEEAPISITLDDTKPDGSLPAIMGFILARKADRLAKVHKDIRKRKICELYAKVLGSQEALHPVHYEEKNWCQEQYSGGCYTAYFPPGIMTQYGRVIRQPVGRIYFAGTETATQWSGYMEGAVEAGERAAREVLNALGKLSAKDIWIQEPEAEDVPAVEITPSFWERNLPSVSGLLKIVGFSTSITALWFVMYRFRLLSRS
Procedure: as §1

SMILES | Ki [1] [nM] | Ki [2] [nM]
Cc1ccc(C2=NN(C(N)=S)C(c3ccc(Cl)cc3)C2)cc1 (configuration not stated) [5-(4-chlorophenyl)-3-(4-methylphenyl)-4,5-dihydro-1H-pyrazole-1-carbothioamide] | 1.5 | 
NC(=S)N1N=C(c2ccc(F)cc2)C[C@H]1c1ccc(Cl)cc1 [(5S)-5-(4-chlorophenyl)-3-(4-fluorophenyl)-4,5-dihydro-1H-pyrazole-1-carbothioamide] |  | 5
